These results are taken from patent US9969696B2, “Compounds as inhibitor of DNA double-strand break repair, methods and applications thereof” (INDIAN INSTITUTE OF SCIENCE, priority 2012, dated 2018).

pIC50: −log10 of the molar value. A value given as a limit tells only on which side of the number the result lay.

The subject of assay [1] is MCF7 cells. The assay can be described thus: γH2AX foci immunofluorescence, MCF7. It counts as cell-based, human. To be noted: MCF7, 24 h. On the procedure:
Cells are processed after about 24 h of treatment. In all panels, DMSO treated cells are used as control. Control and treated cells are fixed, permeabilized, blocked and incubated with anti-γH2AX primary antibody followed by incubation with appropriate biotinylated secondary antibody and strep-FITC. Propidium iodide is used as nuclear marker. Cells treated with secondary antibody alone served as negative control. Images are captured by Olympus DSU microscope. […] HeLa cells (about 2×10^5 cells/ml) are seeded and grown in serum free media for about 6 h. […] DMSO treated cells are used as control.
DMSO treated cells are used as control. DAPI is nuclear marker. Images are captured by Zeiss Confocal laser scanning microscope. B. Detection of DSBs by γH2AX foci formation in MCF7 cells following treatment with siRNA against Ligase I, Ligase III and Ligase IV. Scrambled siRNA is used as the control. […] Data shown are from three independent experiments and in each case, foci from a minimum of about 50 cells are counted. […] The relative length and intensity of propidium iodide stained DNA tails to heads is proportional to the amount of DNA damage present in individual nuclei. […] DMSO treated cells serve as vehicle control. In panels A, D, E and G, significance levels are indicated (ns: not significant, *p<0.05, **p<0.01, ***p<0.001).

The test system of another assay is HeLa cells. The experiment in a line: γH2AX foci immunofluorescence, HeLa. It counts as cell-based, human.
Another assay deals with MCF7. The assay can be described thus: MTT assay, MCF7. The class given is cell-based, human. On the technique in general: Tetrazolium dyes change colour on reduction, which living cells bring about.
The next assay has as its target T1, Ligase IV/XRCC4 complex (Homo sapiens, UniProt P49917).
T1 construct: made in house
The assay can be described thus: DSB joining catalysed by purified Ligase IV/XRCC4 complex. The class given is biochemical. To be noted: equimolar concentration of protein. On the procedure: (§1) A. Western blotting showing presence of Ligase IV/XRCC4 in eluted fractions. W is wash, 1 and 2 are different fractions. […] Concentrations of inhibitors used are indicated. For other details, FIG. 4 legend can be referred. C. […] Radiolabeled oligomeric DNA substrates containing 5′ compatible termini are then added to the reaction along with increasing concentrations of purified Ligase IV/XRCC4 complex (30, 60 and 120 fmol) and products are resolved on a PAGE. F. Bar diagram representing quantification of the complementation experiment performed on 5′-5′ and 5′-3′ noncomplementary ends. In all panels quantification of EJ based on 3 independent experiments is represented as mean±SEM.

The test system of a further assay is A2780. The experiment in a line: MTT assay, A2780. The class given is cell-based. To be noted: Homo sapiens.
For assay [2], the target named is T2, Ligase IV/XRCC4 complex binding to DNA (Homo sapiens, UniProt P49917).
T2 construct: made in house
The experiment in a line: Gel supershift of Ligase IV/XRCC4 on KU:DNA complex. To be noted: increasing concentrations 10-700 μM. On the procedure: A. Western blot analysis of KU70 and KU80 proteins in purified fractions. W is wash, 1, 2 and 3 are different fractions. B. Binding of KU proteins to DNA breaks. [−γ^32P]ATP end-labeled oligomeric DNA substrate containing DSB is incubated for about 30 min on ice with purified KU or Ligase IV/XRCC4 complex. For Ligase IV/XRCC4 supershift, first KU and DNA are incubated followed by addition of Ligase IV/XRCC4 (about 60 fmol). Reaction mixture is resolved on 1-6% native gradient PAGE. C. […] After preincubation of KU with DNA substrates, Ligase IV/XRCC4 complex (about 60 fmol) and increasing concentrations of inhibitor (10, 50, 100, 200, 500 and 700µM) are added, incubated and products are resolved on a gradient native PAGE. D-1 and D-2. […] CD spectra are obtained at a wavelength of 200-260 nm for […]

In the next assay the test system is DNA end joining (NHEJ). The assay can be described thus: NHEJ assay, cell-free extracts prepared from rat testes. The class given is biochemical. On the procedure: ATP end-labeled oligomeric DNA substrate (75 bp) containing 4 nt overhangs at 5′ ends (about 2 h at 25° C.). In the case of vehicle control, DMSO is used. […] The reaction products are purified and resolved on about 8% denaturing polyacrylamide gel.
FIG. 2 depicts the NHEJ assay and study of joining efficiency. A. Schematic representation of NHEJ assay and substrates containing DSBs. B. Comparison of the effect of potential Ligase IV inhibitors on DNA end joining. The joined products are indicated. “M” represents [g-32 ? P] ATP end-labeled 50 by ladder. C. Quantification of the joining efficiency. […] “PSLU” is “photostimulated luminescence unit”. […] Products are resolved on 1% agarose gel and visualized. Ethidium bromide is used as a positive control for the intercalation assay.
The reaction products are resolved on 8% denaturing PAGE. “M” represents [γ-^32P]ATP end-labeled 50 by ladder. […] “M” is a 2 log DNA ladder.
as §1

Assay [3] relates to MCF7 cells. The assay can be described thus: Western blotting for apoptotic and DNA repair markers, MCF7. The class given is cell-based, human. To be noted: MCF7, 20 and 40 μM, about 24 h. An excerpt:
PARP1 plays a major role in DNA damage induced apoptosis and is the main target of caspases.
Antibodies against Ki67 (cell proliferation), ATM, pATM, p53BP1, p21 (DNA repair), BID and Caspase 3 (apoptosis) are used. […] Green color indicates methyl green stained nuclei while brown indicates DNA breaks stained with diaminebenzidine, which is an indication of apoptosis. C. […] GAPDH is used as loading control.
On the technique in general: In western blotting, separated proteins are transferred to a membrane and probed.

The next assay relates to HT1080. The experiment in a line: MTT assay, HT1080. The class given is cell-based. The conditions noted are these: Homo sapiens, HT-1080.
Another assay relates to K562. The assay can be described thus: MTT assay, K562. To be noted: Homo sapiens. It counts as cell-based.

T1 sequence (P49917 whole entry): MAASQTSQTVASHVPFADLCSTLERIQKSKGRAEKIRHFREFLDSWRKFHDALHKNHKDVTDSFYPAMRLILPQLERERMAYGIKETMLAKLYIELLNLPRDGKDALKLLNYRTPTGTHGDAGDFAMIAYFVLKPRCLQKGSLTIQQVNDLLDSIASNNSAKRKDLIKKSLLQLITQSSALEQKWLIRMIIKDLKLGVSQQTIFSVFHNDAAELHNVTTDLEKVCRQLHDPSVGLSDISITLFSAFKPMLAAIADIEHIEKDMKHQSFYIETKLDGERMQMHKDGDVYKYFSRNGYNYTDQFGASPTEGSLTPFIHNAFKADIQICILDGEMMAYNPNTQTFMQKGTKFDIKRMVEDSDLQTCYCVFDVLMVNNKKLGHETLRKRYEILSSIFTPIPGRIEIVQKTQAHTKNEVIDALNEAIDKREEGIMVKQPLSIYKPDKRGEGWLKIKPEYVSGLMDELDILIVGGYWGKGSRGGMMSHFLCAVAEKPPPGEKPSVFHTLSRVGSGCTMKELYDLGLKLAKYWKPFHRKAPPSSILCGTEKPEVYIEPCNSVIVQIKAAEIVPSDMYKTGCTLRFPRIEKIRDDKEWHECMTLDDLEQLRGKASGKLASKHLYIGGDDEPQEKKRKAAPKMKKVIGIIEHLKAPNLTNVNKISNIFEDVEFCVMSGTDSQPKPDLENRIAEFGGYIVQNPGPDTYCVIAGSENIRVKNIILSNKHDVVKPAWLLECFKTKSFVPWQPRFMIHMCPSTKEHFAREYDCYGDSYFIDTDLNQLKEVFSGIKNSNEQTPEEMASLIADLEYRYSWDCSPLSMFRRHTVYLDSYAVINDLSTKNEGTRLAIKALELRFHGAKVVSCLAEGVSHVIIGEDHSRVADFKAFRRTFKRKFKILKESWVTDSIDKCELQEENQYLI
T1 sequence (Q13426 whole entry partner): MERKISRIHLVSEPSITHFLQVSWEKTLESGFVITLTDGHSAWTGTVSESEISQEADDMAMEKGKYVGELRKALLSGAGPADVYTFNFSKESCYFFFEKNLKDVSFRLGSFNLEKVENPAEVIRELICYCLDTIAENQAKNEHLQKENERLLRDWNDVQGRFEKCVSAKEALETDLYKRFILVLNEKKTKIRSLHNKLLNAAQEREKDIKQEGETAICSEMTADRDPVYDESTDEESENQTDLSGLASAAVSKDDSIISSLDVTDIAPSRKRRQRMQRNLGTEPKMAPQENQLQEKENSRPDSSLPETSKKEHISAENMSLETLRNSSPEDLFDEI
T2 sequence (P49917 whole entry): as the sequence (P49917 whole entry) above
T2 sequence (Q13426 whole entry partner): as the sequence (Q13426 whole entry partner) above

Broadly, the pIC50 is −log10 of the IC50, conventionally taken in molar units. The low end stands for a high IC50, the high end for a low IC50. `Oc1nc(S)nc(/N=C/c2ccccc2)c1/N=C/c1ccccc1` [Compound 1, (5E,6E)-5,6-bis(benzylideneamino)-2-mercaptopyrimidin-4-ol]: the γH2AX foci entry with MCF7 cells [1] is recorded as “increase in γH2AX foci in a concentration-dependent manner”. Further, the γH2AX foci entry in the assay on HeLa cells is on record as “increase in γH2AX foci in a concentration-dependent manner”. The “Effect on cell proliferation (MTT)” value in the assay with MCF7 is recorded as “dose-dependent effect on cell proliferation”. The “Joining by purified Ligase IV” value at Ligase IV/XRCC4 complex was “blocks joining”. This compound also showed a pIC50 in the assay with A2780 of roughly 4.82. In addition, in [2], the “Band corresponding to Ligase IV/XRCC4 supershift on KU:DNA” value is recorded as “dose-dependent reduction”. The “End joining in testicular extracts” value with DNA end joining (NHEJ) (Compound 1 about 150 μM added to testicular extracts) is given as “abrogates end joining”. The “Complementation by purified Ligase IV/XRCC4 of inhibited end joining” value with DNA end joining (NHEJ) (Compound 1 about 150 μM, Ligase IV/XRCC4 30, 60, 120 fmol added) is reported as “restores joining for all the ends”. Moreover, the “Inhibition of end joining (EJ) of various types of DSBs” value with DNA end joining (NHEJ) (cell-free repair system from rat testes, compatible, noncompatible, blunt ends) is “inhibits end joining (EJ) irrespective of type and configurations of DSB”. For the same compound, the “Inhibition of DNA end joining (joining efficiency)” value with DNA end joining (NHEJ) (rat testes extracts about 0.5 μg, inhibitors about 150 μM, 75 bp oligomeric DNA with 4 nt 5' overhangs) is reported as “most potent inhibitor”. Besides, in the assay with MCF7 cells [3], the “Expression of BCL2” value is “decreases”; the “Levels of BAD” value is “remain unchanged”; the MDM2 result is listed as “concomitant decrease in MDM2”; the “PARP1 and Caspase 3 cleavage” value was “dose-dependent increase”. Besides, in the assay on MCF7 cells [3], the “Phosphorylation of ATM” value is “increase in phosphorylation”; the “Precursor Caspase 9” value is listed as “Activation of precursor Caspase 9”; the “Proapoptotic proteins PUMA and BAX” value is on record as “activation of proapoptotic proteins”; the “Shorter fragment of MCL1” value is “upregulated in a dose-dependent manner”. Also, the p53 entry in the assay with MCF7 cells [3] was “Activation of p53”. The compound also showed a pIC50 in the assay on HT1080 of roughly 4.22. In the assay on K562, this compound showed a pIC50 of less than 4.00.
